PubChem BioAssay (NCI)
Where “and” joins values, the source holds several entries; their conditions need not be identical. Equal values may be shown once.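 Each compound was tested at five concentrations against cells in 96-well plates for 48 hours. The concentration for 50% growth inhibition is given as GI50. Definition used: TGI = concentration required for complete inhibition of growth.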

Columns and labels:
Test in all cases: inhibition of tumour cell growth, NCI panel, 48 h
OVCAR-5 ovarian = system: OVCAR-5 ovarian
K-562 leukemia = system: K-562 leukemia
A498 renal = system: A498 renal
HOP-92 NSCLC = system: HOP-92 NSCLC
MCF7 breast = system: MCF7 breast
IGROV1 ovarian = system: IGROV1 ovarian
MDA-MB-231 breast = system: MDA-MB-231 breast
SW-620 colon = system: SW-620 colon
KM12 colon = system: KM12 colon
UO-31 renal = system: UO-31 renal

CN1CCC(C(=O)Nc2n[nH]c3nnc(-c4ccccc4)cc23)CC1
GI50 (OVCAR-5 ovarian): > 25 µM
TGI (OVCAR-5 ovarian): > 25 µM
GI50 (K-562 leukemia): > 25 µM
TGI (K-562 leukemia): > 25 µM
GI50 (A498 renal): 5.67 µM
TGI (A498 renal): > 21.5 µM
GI50 (HOP-92 NSCLC): 11.3 µM
TGI (HOP-92 NSCLC): > 25 µM
GI50 (MCF7 breast): 10.2 µM
TGI (MCF7 breast): > 25 µM
GI50 (IGROV1 ovarian): > 25 µM
TGI (IGROV1 ovarian): > 25 µM
GI50 (MDA-MB-231 breast): > 25 µM
TGI (MDA-MB-231 breast): > 25 µM
GI50 (SW-620 colon): > 25 µM
TGI (SW-620 colon): > 25 µM
GI50 (KM12 colon): 19.4 µM
TGI (KM12 colon): > 25 µM
GI50 (UO-31 renal): > 25 µM
TGI (UO-31 renal): > 25 µM

O=[N+]([O-])/C(=C/C=C/c1ccccc1)c1ccccc1
GI50 (OVCAR-5 ovarian): 2.38 µM
TGI (OVCAR-5 ovarian): 6.06 µM
GI50 (K-562 leukemia): 1.7 µM
TGI (K-562 leukemia): 5 µM
GI50 (A498 renal): 3.78 µM
TGI (A498 renal): 9.66 µM
GI50 (HOP-92 NSCLC): 1.54 µM
TGI (HOP-92 NSCLC): 3.8 µM
GI50 (MCF7 breast): 1.48 µM
TGI (MCF7 breast): 4.23 µM
GI50 (IGROV1 ovarian): 1.92 µM
TGI (IGROV1 ovarian): 4.54 µM
GI50 (MDA-MB-231 breast): 1.92 µM
TGI (MDA-MB-231 breast): 4.28 µM
GI50 (SW-620 colon): 1.79 µM
TGI (SW-620 colon): 3.67 µM
GI50 (KM12 colon): 2.04 µM
TGI (KM12 colon): 4.29 µM
GI50 (UO-31 renal): 1.46 µM
TGI (UO-31 renal): 3.19 µM

COC(=O)c1sc(=S)c2sc(C(=O)OC)c(C(=O)OC)c2c1C(=O)OC
GI50 (OVCAR-5 ovarian): 92.2 µM
TGI (OVCAR-5 ovarian): > 100 µM
GI50 (K-562 leukemia): 36.2 µM
TGI (K-562 leukemia): > 100 µM
GI50 (A498 renal): 22.2 µM
TGI (A498 renal): 52.1 µM
GI50 (HOP-92 NSCLC): 24.3 µM
TGI (HOP-92 NSCLC): > 100 µM
GI50 (MCF7 breast): 40 µM
TGI (MCF7 breast): > 100 µM
GI50 (IGROV1 ovarian): 37.1 µM
TGI (IGROV1 ovarian): > 100 µM
GI50 (MDA-MB-231 breast): 36.3 µM
TGI (MDA-MB-231 breast): > 100 µM
GI50 (SW-620 colon): 74.8 µM
TGI (SW-620 colon): > 100 µM
GI50 (KM12 colon): 36.4 µM
TGI (KM12 colon): > 100 µM
GI50 (UO-31 renal): 68.5 µM
TGI (UO-31 renal): > 100 µM

CCCCCCCC(=O)OC[n+]1cccc(-c2c(COC(=O)NC(C)C)c(COC(=O)NC(C)C)c3n2CCC3)c1
TGI (OVCAR-5 ovarian): > 100 µM
TGI (K-562 leukemia): > 100 µM
TGI (A498 renal): > 89.4 µM
TGI (HOP-92 NSCLC): > 100 µM
TGI (MCF7 breast): > 100 µM
TGI (IGROV1 ovarian): > 100 µM
TGI (MDA-MB-231 breast): > 100 µM
TGI (SW-620 colon): > 100 µM
TGI (KM12 colon): > 100 µM
TGI (UO-31 renal): > 100 µM

CN(C)CC(=O)N1CCc2c([nH]c3ccccc23)C1c1cccnc1 (stereo not given)
TGI (OVCAR-5 ovarian): > 100 µM
TGI (K-562 leukemia): > 100 µM
TGI (A498 renal): > 100 µM
TGI (HOP-92 NSCLC): > 100 µM
GI50 (MCF7 breast): 70.2 µM
TGI (MCF7 breast): > 100 µM
TGI (IGROV1 ovarian): > 100 µM
GI50 (MDA-MB-231 breast): 21.5 µM
TGI (MDA-MB-231 breast): 83.5 µM
TGI (SW-620 colon): > 100 µM
TGI (KM12 colon): > 100 µM
TGI (UO-31 renal): > 100 µM

OCCN1CCCN(CCCN2c3ccccc3Sc3ccc(C(F)(F)F)cc32)CC1
GI50 (OVCAR-5 ovarian): 3.21 µM
TGI (OVCAR-5 ovarian): 15 µM
GI50 (K-562 leukemia): 1.57 µM
TGI (K-562 leukemia): 3.23 µM
GI50 (A498 renal): 1.69 µM
TGI (A498 renal): 5.63 µM
GI50 (HOP-92 NSCLC): 1.73 µM
TGI (HOP-92 NSCLC): 7.63 µM
GI50 (MCF7 breast): 1.6 µM
TGI (MCF7 breast): 3.14 µM
GI50 (IGROV1 ovarian): 2.68 µM
TGI (IGROV1 ovarian): 7.22 µM
GI50 (MDA-MB-231 breast): 2.31 µM
TGI (MDA-MB-231 breast): 6.15 µM
GI50 (SW-620 colon): 1.86 µM
TGI (SW-620 colon): 4.15 µM
GI50 (KM12 colon): 2.27 µM
TGI (KM12 colon): 4.69 µM
GI50 (UO-31 renal): 2.3 µM
TGI (UO-31 renal): 10.6 µM

Nc1nc2c(ncn2C2OC(CO)C(O)C2O)c(=O)[nH]1 (stereo not given)
TGI (OVCAR-5 ovarian): > 100 µM and 291 µM
GI50 (K-562 leukemia): > 100 µM
TGI (K-562 leukemia): > 100 µM and 233 µM
TGI (A498 renal): 8.79 µM
GI50 (HOP-92 NSCLC): > 100 µM and 82.5 µM
TGI (HOP-92 NSCLC): > 100 µM and 263 µM
GI50 (MCF7 breast): > 100 µM
TGI (MCF7 breast): > 100 µM and 223 µM
GI50 (IGROV1 ovarian): > 100 µM
TGI (IGROV1 ovarian): > 100 µM and 170 µM
GI50 (MDA-MB-231 breast): > 100 µM
TGI (MDA-MB-231 breast): > 100 µM
GI50 (SW-620 colon): > 100 µM
TGI (SW-620 colon): > 100 µM and 241 µM
GI50 (KM12 colon): > 100 µM
TGI (KM12 colon): > 100 µM and 224 µM
GI50 (UO-31 renal): > 100 µM
TGI (UO-31 renal): > 100 µM and 204 µM

CC(=O)OCCc1cc2ccccc2oc1=O
TGI (OVCAR-5 ovarian): > 100 µM
TGI (K-562 leukemia): > 100 µM
TGI (A498 renal): > 100 µM
TGI (HOP-92 NSCLC): > 100 µM
TGI (MCF7 breast): > 100 µM
TGI (IGROV1 ovarian): > 100 µM
TGI (MDA-MB-231 breast): > 100 µM
TGI (SW-620 colon): > 100 µM
TGI (KM12 colon): > 100 µM
TGI (UO-31 renal): > 100 µM
